ChEMBL document CHEMBL1201862, “PubChem BioAssay data set” (2004)
Activity calls are given as the source filed them.

Key:
[1] = T. cruzi growth inhibition in host cells, dose response, cell-based, plate reader, dry powder, set 2 (AID 652275); assay type: functional
[2] = molecular target: Photoreceptor-specific nuclear receptor (Homo sapiens, UniProt Q9Y5X4); experiment: NR2E3 inverse agonists, dose response, biochemical, TR-FRET (AID 463256); assay type: functional
[3] = molecular target: Peroxisome proliferator-activated receptor gamma/Nuclear receptor corepressor 2 (Homo sapiens, UniProt P37231+Q9Y618); experiment: Counterscreen for NR2E3 inverse agonists: TR-FRET-based biochemical high throughput dose response assay to identify inverse agonists of the interaction between peroxisome proliferator-activated receptor gamma (PPARg) and nuclear receptor co-repressor 2 (NCOR2).; assay type: functional
[4] = ADAM10 protease inhibitors, dose response, selectivity assay for ADAM17 exosite inhibitor project, biochemical, FRET peptide substrate, recombinant human ADAM10 (AID 743259);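 note: ADAM10 enzyme cleaving a FRET peptide substrate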
[5] = molecular target: Disintegrin and metalloproteinase domain-containing protein 17 (Homo sapiens, UniProt P78536); experiment: exosite inhibitors of ADAM17, dose response, biochemical (AID 743260)
[6] = molecular target: NAD-dependent protein deacylase sirtuin-5, mitochondrial (Homo sapiens, UniProt Q9NXA8); experiment: SIRT5 desuccinylase inhibitors, dose response, biochemical, fluorescence imaging, cherry-pick, set 5 (AID 720591);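 note: desuccinylation of succinyl peptide AMC substrate read as fluorescence after trypsin release; potency of inhibitors that lower fluorescence and may act on trypsin instead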
[7] = molecular target: Paired box protein Pax-8 (Homo sapiens, UniProt Q06710); experiment: inhibitors of PAX8-driven TPO luciferase reporter, dose response, RMG-I cells, cherry-pick (AID 687027); assay type: functional, cell-based;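 note: luciferase reporter driven by Pax8 target thyroperoxidase promoter measured by SteadyGlo luminescence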
[8] = NIH:OVCAR-3 ovarian cancer cell cytotoxicity, dose response, PAX8 inhibitor project, plate reader, dry powder samples (AID 743044); assay type: functional, cell-based
[9] = P. falciparum ATP4 D1247Y mutant growth inhibitors, dose response, NITD609-resistant line, SYBR Green, dry powder (AID 1159571); assay type: functional, cell-based;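 note: parasites synchronized at ring stage by sorbitol before testing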
[10] = P. falciparum 3D7-ScDHODH growth inhibitors, dose response, SYBR Green, dry powder samples (AID 1159570); assay type: functional, cell-based;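 note: parasite growth measured after 72 hours of compound exposure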
[11] = P. falciparum Dd2 growth inhibitors, dose response, SYBR Green, dry powder samples (AID 1159566); assay type: functional, cell-based;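 note: potency for growth inhibition with lower SYBR green DNA signal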
[12] = HepG2 cell cytotoxicity, dose response, cytotoxicity control, cherry-picked samples (AID 1159577); assay type: functional, cell-based
[13] = HepG2 cell cytotoxicity, dose response, cytotoxicity control, plate reader, dry powder samples (AID 1159569); assay type: functional, cell-based;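 note: inhibitor potency with signal falling toward the positive control level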
[14] = P. falciparum Dd2 growth inhibitors, dose response, SYBR Green, cherry-picked samples (AID 1159567); assay type: functional, cell-based
[15] = IGROV1 ovarian cancer cell cytotoxicity, dose response, PAX8 inhibitor project, plate reader, dry powder samples (AID 743043); assay type: functional, cell-based; conditions: IGROV-1
[16] = cytotoxicity in OVCAR8 ovarian cancer cells, dose response, PAX8 project, cell-based, plate reader, dry powder samples (AID 743197); assay type: functional; conditions: OVCAR-8
[17] = molecular target: T1, Fatty acid synthase (Homo sapiens, UniProt P49327); experiment: FAS thioesterase domain inhibitors, dose response, biochemical, kinetic fluorescence intensity (AID 624326); assay type: functional;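 note: rate of fluorescence rise from hydrolysis of a fluorogenic O-methyl fluorescein ester substrate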
[18] = molecular target: T1, Fatty acid synthase; experiment: FAS thioesterase domain inhibitors, dose response, biochemical, endpoint fluorescence intensity, uHTS hits (AID 624327); assay type: functional;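 note: fluorescence from hydrolysis of an O-methyl fluorescein acyl ester substrate by the enzyme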
[19] = molecular target: Prothrombin (Homo sapiens, UniProt P00734); experiment: Thrombin 1536 HTS Dose Response Confirmation. [Related pubchem assays: 1046 (Thrombin 1536 HTS; hits were confirmed in this assay)]; assay type: functional
[20] = inhibitors of PGC1a acetylation in cells, dose response, cell-based, cherry-picked samples (AID 720514); assay type: functional;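 note: potency may reflect raised or lowered acetylation signal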
[21] = molecular target: Major prion protein (Homo sapiens, UniProt P04156); assay type: functional, cell-based
[22] = cells
[23] = molecular target: Protein-tyrosine kinase 2-beta (Homo sapiens, UniProt Q14289);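 note: potency of inhibitors of PYK2 kinase phosphorylation of poly-GT substrate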
[24] = molecular target: T2, RNA-editing ligase 1, mitochondrial (Trypanosoma brucei brucei, UniProt P86926); experiment: TbREL1 ligase inhibitors, dose response, biochemical, fluorescence, Trypanosoma brucei (AID 1117295); assay type: functional
T2 sequence (P86926 whole entry): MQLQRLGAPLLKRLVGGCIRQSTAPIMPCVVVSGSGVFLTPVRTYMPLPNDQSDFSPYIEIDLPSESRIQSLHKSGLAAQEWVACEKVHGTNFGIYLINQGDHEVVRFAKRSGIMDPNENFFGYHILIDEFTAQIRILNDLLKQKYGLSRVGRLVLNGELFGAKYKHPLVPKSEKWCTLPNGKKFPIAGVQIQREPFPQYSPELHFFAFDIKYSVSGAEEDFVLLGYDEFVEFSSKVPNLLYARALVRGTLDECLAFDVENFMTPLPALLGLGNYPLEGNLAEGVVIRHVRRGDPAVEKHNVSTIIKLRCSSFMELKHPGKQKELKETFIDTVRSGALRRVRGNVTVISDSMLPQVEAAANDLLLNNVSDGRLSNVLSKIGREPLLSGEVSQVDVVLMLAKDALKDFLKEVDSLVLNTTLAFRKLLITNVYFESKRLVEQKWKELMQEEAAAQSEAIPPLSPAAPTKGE

[25] = molecular target: Induced myeloid leukemia cell differentiation protein Mcl-1 (Homo sapiens, UniProt Q07820); assay type: functional
[26] = molecular target: Nonstructural protein 1 (Influenza A virus, UniProt Q194T2); assay type: functional, Influenza A virus (A/California/07/2009(H1N1))
[27] = Luminescence Cell-Based Dose Response HTS to Identify Inhibitors of 5'UTR Stem-Loop Driven Prion Protein mRNA Translation in H4 Neuroglioblastoma Cells. [Related pubchem assays: 1827 (Project Summary), 1813 (Primary HTS)]; assay type: functional
[28] = inhibitors of SNCA 5'UTR-driven reporter translation, confirmation, H4 neuroglioma cells, luminescence (AID 1988); assay type: functional, cell-based
[29] = inhibitors of firefly luciferase expression or activity, dose response, H4 neuroglioma cells, luminescence (AID 1990); assay type: functional, cell-based
[30] = molecular target: Kallikrein-7 (Homo sapiens, UniProt P49862); experiment: Fluorescence Intensity-based biochemical primary high throughput dose response assay to identify activators of kallikrein-7 (K7) zymogen.
[31] = molecular target: Peroxisome proliferator-activated receptor gamma/Nuclear receptor coactivator 3 (Homo sapiens, UniProt P37231); experiment: TR-FRET dose response biochemical High Throughput Screening assay for agonists of the steroid receptor coactivator 3 (SRC-3) recruitment by the peroxisome proliferator-activated receptor gamma (PPAR gamma): non-selective agonists. [Related pubchem assays: 1301 (Confirmation screen.), 1048 (Primary screen.)]; assay type: functional
[32] = molecular target: Peroxisome proliferator-activated receptor gamma/Nuclear receptor coactivator 2 (Homo sapiens, UniProt P37231); experiment: TR-FRET dose response biochemical High Throughput Screening assay for agonists of the steroid receptor coactivator 2 (SRC-2) recruitment by the peroxisome proliferator-activated receptor gamma (PPAR gamma): non-selective agonists. [Related pubchem assays: 1297, 1032 ]; assay type: functional
[33] = molecular target: Albumin (Bos taurus, UniProt P02769); experiment: Counterscreen for inhibitors of T-cell receptor (TCR)-CD3 interaction: Fluorescence-based biochemical high throughput dose response assay to identify inhibitors of T-cell receptor (TCR)-CD3 interaction using a TAMRA-labeled BSA probe.; assay type: functional

With `CC(C)N1C[C@@H](CN(C)Cc2ccc(Cl)cc2)Oc2c(C(=O)Nc3ccnnc3)cccc2C1=O` the AC50 [1] was 0.299 µM (active).
For `Cc1csc(NC(=O)COc2ccc3c(C)cc(=O)oc3c2)n1`, the IC50 [2] was 7.06 µM (active) and the IC50 [3] was > 39.8 µM (not active).
With `Cc1ccc(CN2C(=O)[C@H]3Cc4c([nH]c5ccccc45)C(C)(C)N3C2=O)cc1` the IC50 [4] was > 69.5 µM (inactive) and the IC50 [5] was > 69.5 µM (inactive).
For `Cc1cccc(NC(=O)N2CCCC(CNC(=O)c3ccccc3Cl)C2)c1C` (centres undefined), the AC50 [6] was > 30 µM (inactive).
In the case of `CC(C)N1CC2(CN(Cc3ccc(F)c(F)c3)C2)Oc2c(NC(=O)c3ccncc3)cccc2C1=O`, the AC50 [1] is reported as 1.05 µM (active).
In the case of `COc1cccc(-c2cc(C(=O)Nc3cc(C)on3)no2)c1`, the IC50 [2] is reported as > 39.8 µM (not active) and the IC50 [3] is reported as > 39.8 µM (not active).
In the case of `C[C@@H]1CN([C@H](C)CO)C(=O)c2cc(NC(=O)Nc3ccc(F)cc3)ccc2O[C@@H](C)CCCCO[C@H]1CN(C)C(=O)NC1CCCCC1`, the AC50 [7] is reported as 6.55 µM (active) and the AC50 [8] is reported as 43.1 µM (active).
For `CCCc1cn(CC[C@@H]2CC[C@@H](NS(=O)(=O)c3ccc(-c4ccccc4)cc3)[C@H](CO)O2)nn1`, the AC50 [9] was 1.82 µM (active), the AC50 [10] was 2.17 µM (active) and the AC50 [11] was 1.99 µM (active). For the same molecule, the AC50 [12] was 23.3 µM (active), the AC50 [13] was 37.5 µM (active) and the AC50 [14] was 1.7 µM (active).
In the case of `C[C@@H]1CCCCO[C@H](CN(C)Cc2ccc(C(F)(F)F)cc2)[C@@H](C)CN([C@@H](C)CO)C(=O)c2cc(NS(=O)(=O)c3ccc(F)cc3)ccc2O1`, the AC50 [15] is reported as 31 µM (active), the AC50 [16] is reported as 29.7 µM (active) and the AC50 [7] is reported as 8.57 µM (active). For the same molecule, the AC50 [8] was 21.5 µM (active).
With `CCn1cc(C(=O)NCc2ccco2)c(=O)c2cc(S(=O)(=O)N3CCCCCC3)ccc21` the IC50 [17] was 2.32 µM (active), the IC50 [18] was 2.96 µM (active) and the IC50 [19] was 14.7 µM (active).
For `COc1ccc(OC)c(NC(=O)COC(=O)Cc2ccc(-c3ccccc3)cc2)c1`, the IC50 [4] was > 69.5 µM (inactive) and the IC50 [5] was > 69.5 µM (inactive).
For `CC1CCCN(CC(=O)N2CCCc3ccccc32)C1.[O-][Cl+3]([O-])([O-])O` (centres undefined), the AC50 [20] was 27.1 µM (active).
In the case of `CCOC(=O)CSc1nc(C(C)C)nc2ccccc12`, the IC50 [21] is reported as 1.08 µM (active), the IC50 [22] is reported as > 138 µM (inactive) and the IC50 [23] is reported as > 69.5 µM (not active).
In the case of `Cc1n[nH]c(=S)n(NC(=O)/C=C/C(=O)Nn2c(=S)[nH]nc(C)c2=O)c1=O`, the IC50 [24] is reported as 63.6 µM (inactive), the IC50 [25] is reported as 4.67 µM (active) and the IC50 [26] is reported as 7.29 µM (active).
For `CCOC(=O)c1c(-c2ccccc2)csc1NC(=O)CSc1nncs1`, the EC50 [27] was > 120 µM (not active), the EC50 [28] was 30.6 µM (active) and the EC50 [29] was 15.8 µM (active). The IC50 [4] was > 69.5 µM (inactive) and the IC50 [5] was > 69.5 µM (inactive).
With `CCC(=O)N1CC[C@@H]2[C@H]1c1cc(Br)ccc1N(C)[C@@H]2CO` the AC50 [1] was 11.7 µM (active).
For `COc1ccc(C2C3=C(O)CC(C)(C)CC3=NC(C)=C2C(=O)N2CCOCC2)c(OC)c1` (centres undefined), the EC50 [30] was 52.4 µM (inactive).
With `O=C(Oc1ccc(Oc2ccccc2)cc1)N1CCC(O)CC1` the AC50 [6] was > 30 µM (inactive).
For `Cc1cc(NC(=O)CSc2nnc3ccc(-c4ccccc4)nn23)no1`, the AC50 [6] was > 30 µM (inactive).
With `C(=C\c1ccc([C@H]2[C@@H]3CN(Cc4cccnc4)C[C@H]2N3)cc1)/c1ccccc1` the AC50 [9] was 3.95 µM (active), the AC50 [10] was 4.3 µM (active) and the AC50 [11] was 3.79 µM (active). For the same molecule, the AC50 [12] was 27.5 µM (active), the AC50 [13] was 18.6 µM (active) and the AC50 [14] was 2.81 µM (active).
With `Cc1cc(C)c2c(n1)nn1c(NCCN3CCOCC3)cc(C)nc21` the EC50 [30] was 34.8 µM (inactive).
In the case of `O=C(CN1C(=O)NC2(CCCc3ccccc32)C1=O)NCC(F)(F)F` (centres undefined), the IC50 [2] is reported as 8.55 µM (active) and the IC50 [3] is reported as 7.85 µM (active).
In the case of `N#CC1=C2SCN(Cc3ccccc3)CN2C(=O)CC1c1cccs1` (centres undefined), the IC50 [21] is reported as > 138 µM (inactive), the EC50 [31] is reported as > 79.4 µM (not active) and the EC50 [32] is reported as > 79.4 µM (not active). The IC50 [22] was > 138 µM (inactive).
In the case of `OC[C@@H]1CC[C@@H]2O[C@H](CCc3ccc(C#CCc4ccccc4)cc3)[C@H](n3cc(-c4ccccc4)nn3)C[C@@H]2O1`, the AC50 [9] is reported as 1.53 µM (active), the AC50 [10] is reported as 1.79 µM (active) and the AC50 [11] is reported as 0.879 µM (active). For the same molecule, the AC50 [13] was > 100 µM (inactive) and the AC50 [14] was 1.45 µM (active).
With `C[C@H]1CCCCO[C@H](CN(C)Cc2ccc(C(F)(F)F)cc2)[C@@H](C)CN([C@@H](C)CO)C(=O)c2cc(NS(=O)(=O)c3ccc(Cl)cc3)ccc2O1` the AC50 [15] was 36 µM (active), the AC50 [16] was > 70 µM (inactive) and the AC50 [7] was 4.73 µM (active).
For `CC(=N)/C(C#N)=C(/O)CSc1nc2cc(Cl)ccc2s1`, the IC50 [19] was > 50 µM (not active).
For `COC(=O)C1=C(C)N(Cc2cccc(C(F)(F)F)c2)C(NCc2ccccc2C(F)(F)F)=NC1c1cccc(F)c1` (centres undefined), the IC50 [24] was > 96.6 µM (inactive).
With `CC(C)OC(=O)CSc1nc(Cc2ccccc2)nc2ccccc12` the IC50 [21] was 4.45 µM (active) and the IC50 [22] was > 138 µM (inactive).
For `O=C(CSc1nc2ccccc2c(=O)n1-c1ccc(F)c(Cl)c1)Nc1cccc(S(=O)(=O)N2CCOCC2)c1`, the IC50 [33] was > 94.2 µM (inactive).
In the case of `COC(=O)C1=C(C)N(Cc2ccc(C(F)(F)F)cc2)C(NCc2ccccc2C(F)(F)F)=NC1c1ccc(Cl)cc1` (centres undefined), the IC50 [24] is reported as > 96.6 µM (inactive).
